Reference: patent US8476197B2, “Aminopropenoates as fungicides” (priority 2009, dated 2013)
Marks after values point to notes of the source that are not given here.

settings: pH 2.7

Row | SMILES | Log P
1 | CCOC(=O)C(C#N)=C(NC1CCCC1OCC)c1cccnc1Cl (stereo not shown) [Compound 1373] | 3.44^[a]
2 | CCOC(=O)C(C#N)=C(NC1CSC1)c1cccnc1Cl [Compound 1374] | 2.64^[a]
3 | CCCC(COC)NC(=C(C#N)C(=O)OCC)c1cccnc1Cl (stereo not shown) [Compound 1375] | 3.31^[a]
4 | CCOCC(COCC)NC(=C(C#N)C(=O)OCC)c1cccnc1Cl [Compound 1376] | 3.33^[a]
5 | CCOC(=O)C(C#N)=C(NCCOc1ccccc1Br)c1cccnc1Cl [Compound 1377] | 3.53^[a]
6 | CCOC(=O)C(C#N)=C(NCC(C)c1ccccc1Br)c1cccnc1Cl (stereo not shown) [Compound 1378] | 3.94^[a]
7 | CCOC(=O)C(C#N)=C(NC(C(=O)OCC)c1ccccc1)c1cccnc1Cl (stereo not shown) [Compound 1379] | 3.39^[a]
8 | CCCc1nccc(C(NC(C)c2nccs2)=C(C#N)C(=O)OCC)c1Cl (stereo not shown) [Compound 1382] | 3.27^[a]
9 | CCOC(=O)C(C#N)=C(NC(C)c1nccs1)c1ccnc(CC)c1Cl (stereo not shown) [Compound 1383] | 2.92^[a]
10 | CCOC(=O)C(C#N)=C(NC(C)c1nccs1)c1ccnc(CC(C)C)c1Cl (stereo not shown) [Compound 1384] | 3.64^[a]
11 | CCOC(=O)C(C#N)=C(NC(C)c1nccs1)c1ccnc(-c2ccccc2)c1Cl (stereo not shown) [Compound 1385] | 3.31^[a]
12 | CCOC(=O)C(C#N)=C(NC(C)C(=O)NC)c1ccnc(Cl)c1Cl (stereo not shown) [Compound 1387] | 2.1^[a]
13 | CCOC(=O)C(C#N)=C(Nc1ccccc1SC)c1ccnc(Cl)c1Cl [Compound 1388] | 3.89^[a]
14 | CCOC(=O)C(C#N)=C(NC(C)COC)c1ccnc(Cl)c1Cl (stereo not shown) [Compound 1392] | 3.06^[a]
15 | CCOC(=O)C(C#N)=C(NC(C)C(C)C)c1ccnc(CC)c1Cl (stereo not shown) [Compound 1399] | 4.02^[a]
16 | CCCc1nccc(C(NC(C)C(C)C)=C(C#N)C(=O)OCC)c1Cl (stereo not shown) [Compound 1400] | 4.41^[a]
17 | CCOC(=O)C(C#N)=C(NCc1ncccc1Cl)c1cccnc1Cl [Compound 1412] | 2.78^[a]
18 | CCOC(=O)C(C#N)=C(NCc1ncccc1Cl)c1cccnc1Cl [Compound 1413] | 2.77^[a]
19 | CCOC(=O)C(C#N)=C(NC(C)(C)C)c1cn(C)nc1C(F)F [Compound 1418] | 2.66^[a]
20 | CCOC(=O)C(C#N)=C(NC(C)C)c1cn(C)nc1C(F)F [Compound 1419] | 2.53^[a]

The remaining lines, values ahead:

Row | Log P | SMILES
21 | 4.44^[a] | CCOC(=O)C(C#N)=C(NC(C)C(C)C)c1ccnc(SC)c1Cl (stereo not shown) [Compound 1401]
22 | 4.81^[a] | CCOC(=O)C(C#N)=C(NC(C)C(C)C)c1ccnc(CC(C)C)c1Cl (stereo not shown) [Compound 1402]
23 | 4.34^[a] | CCOC(=O)C(C#N)=C(NC(C)C(C)C)c1ccnc(-c2ccccc2)c1Cl (stereo not shown) [Compound 1403]
24 | 3.92^[a] | CCOC(=O)C(C#N)=C(NC(C)C(C)C)c1ccnc(Cl)c1Br (stereo not shown) [Compound 1405]
25 | 3.53^[a] | CCNC(=O)C(C#N)=C(NC(C)C(C)C)c1ccnc(Cl)c1Br (stereo not shown) [Compound 1408]
26 | 3.96^[a] | CCOC(=O)C(C#N)=C(NC(C)C(C)C)c1ccnc(Br)c1Br (stereo not shown) [Compound 1410]
27 | 3.37^[a] | CCOC(=O)C(C#N)=C(NC(C)c1nc(C2CC2)cs1)c1cccnc1Cl (stereo not shown) [Compound 1416]
28 | 3.8^[a] | CCOC(=O)C(C#N)=C(NC(CC(C)C)C(F)(F)F)c1cn(C)nc1C(F)F (stereo not shown) [Compound 1417]
29 | 1.79^[a] | CCOC(=O)C(C#N)=C(NC1CCS(=O)(=O)C1)c1cn(C)nc1C(F)F (stereo not shown) [Compound 1420]
30 | 2.96^[a] | CCOC(=O)C(C#N)=C(NC(C)(C)CC)c1cn(C)nc1C(F)F [Compound 1421]
31 | 2.76^[a] | CCOC(=O)C(C#N)=C(NC(C#N)C(C)C)c1cn(C)nc1C(F)F (stereo not shown) [Compound 1422]
32 | 2.04^[a] | CCOC(=O)C(C#N)=C(NCC1(C)COC1)c1cn(C)nc1C(F)F [Compound 1423]

same assay, conditions: pH 7.5

Row | SMILES | Log P
33 | CCOC(=O)C(C#N)=C(NC(C)c1ccccn1)c1ccc(C)nc1Cl (stereo not shown) [Compound 1380] | 2.67
34 | CCOC(=O)C(C#N)=C(NC(C)c1ccccn1)c1ccc(Cl)nc1Cl (stereo not shown) [Compound 1381] | 3.06
